Earlier results, collected in patent US20070275934A1, “Treatment of pancreatic cancer with active vitamin d compounds in combination with other treatments” (priority 2004, published 2007).

Test system: patients with refractory malignancies
Conditions: weekly HDPA, Beer et al. 2001

SMILES: C=C1/C(=C\C=C2/CCC[C@]3(C)[C@@H]([C@H](C)CCCC(C)(C)O)CC[C@@H]23)C[C@@H](O)C[C@@H]1O [calcitriol, 1α,25-dihydroxyvitamin D3]
- Dose-limiting toxicity: no dose-limiting toxicity
- Mean peak calcitriol levels: within the therapeutic range
